Test results as given in PubChem BioAssay AID330 (DTP/NCI, 2004).
Where “and” joins values, the source holds several entries; their conditions need not be identical. Identical values can stand only once. Inconclusive results and toxic doses are left out. The calls were made as follows: active = survival T/C of 150% or more; inactive = T/C below 125% in these data.

System: P388 leukemia ip, CD2F1 mice, survival T/C
Assay: NCI In Vivo Anticancer Drug Screen. Data for tumor model P388 Leukemia (intraperitoneal) in CD2F1 (CDF1) mice
Settings: endpoint: median survival time, higher = longer survival
Outline: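 Mice carrying the transplanted tumor received test compound or vehicle. Survival was recorded in each group, and the value is the treated-group measurement divided by that of the vehicle-treated control group.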

[1] = dose: 50.0 mg/kg/injection, schedule: Q01DX009 (ip), vehicle: saline
[2] = dose: 100.0 mg/kg/injection, schedule: Q01DX009 (ip), vehicle: saline
[3] = dose: 200.0 mg/kg/injection, schedule: Q01DX009 (ip), vehicle: saline
[4] = dose: 25.0 mg/kg/injection, schedule: Q01DX009 (ip), vehicle: saline with Tween-80
[5] = dose: 50.0 mg/kg/injection, schedule: Q01DX009 (ip), vehicle: Klucel (hydroxypropylcellulose) (HPC)
[6] = dose: 50.0 mg/kg/injection, schedule: Q01DX009 (ip), vehicle: saline with Tween-80
[7] = dose: 100.0 mg/kg/injection, schedule: Q01DX009 (ip), vehicle: saline with Tween-80
[8] = dose: 200.0 mg/kg/injection, schedule: Q01DX009 (ip), vehicle: saline with Tween-80
[9] = dose: 50.0 mg/kg/injection, schedule: Q01DX005 (ip), vehicle: Klucel (hydroxypropylcellulose) (HPC)
[10] = dose: 100.0 mg/kg/injection, schedule: Q01DX005 (ip), vehicle: Klucel (hydroxypropylcellulose) (HPC)
[11] = dose: 200.0 mg/kg/injection, schedule: Q01DX005 (ip), vehicle: Klucel (hydroxypropylcellulose) (HPC)

Measured: T/C

C[C@]12C=CC(=O)C=C1CC[C@@H]1[C@@H]2C(=O)C[C@@]2(C)[C@H]1CC[C@]2(O)C(=O)CO
inactive: dose: 25.0 mg/kg/injection, schedule: Q01DX009 (ip), vehicle: saline 106 % of control | dose: 30.0 mg/kg/injection, schedule: Q04DX002 (sc), vehicle: Klucel (hydroxypropylcellulose) (HPC) 100 % of control and 95 % of control | dose: 44.0 mg/kg/injection, schedule: Q04DX002 (sc), vehicle: Klucel (hydroxypropylcellulose) (HPC) 100 % of control | dose: 45.0 mg/kg/injection, schedule: Q04DX002 (sc), vehicle: Klucel (hydroxypropylcellulose) (HPC) 104 % of control | dose: 50.0 mg/kg/injection, schedule: Q01DX001 (oral), vehicle: saline 93 % of control | dose: 50.0 mg/kg/injection, schedule: Q01DX005 (sc), vehicle: Klucel (hydroxypropylcellulose) (HPC) 111 % of control | [1] 106 % of control | dose: 50.0 mg/kg/injection, schedule: Q01DX009 (oral), vehicle: saline 100 % of control | dose: 67.0 mg/kg/injection, schedule: Q04DX002 (sc), vehicle: Klucel (hydroxypropylcellulose) (HPC) 100 % of control and 104 % of control | dose: 100.0 mg/kg/injection, schedule: Q01DX001 (oral), vehicle: saline 100 % of control | dose: 100.0 mg/kg/injection, schedule: Q01DX005 (sc), vehicle: Klucel (hydroxypropylcellulose) (HPC) 111 % of control | [2] 106 % of control | dose: 100.0 mg/kg/injection, schedule: Q01DX009 (oral), vehicle: saline 114 % of control | dose: 100.0 mg/kg/injection, schedule: Q04DX002 (sc), vehicle: Klucel (hydroxypropylcellulose) (HPC) 98 % of control and 107 % of control | dose: 125.0 mg/kg/injection, schedule: Q01DX001 (ip), vehicle: steriod suspending solution 98 % of control and 95 % of control | dose: 133.0 mg/kg/injection, schedule: Q01DX001 (sc), vehicle: Klucel (hydroxypropylcellulose) (HPC) 100 % of control | dose: 200.0 mg/kg/injection, schedule: Q01DX001 (oral), vehicle: saline 100 % of control | dose: 200.0 mg/kg/injection, schedule: Q01DX001 (sc), vehicle: Klucel (hydroxypropylcellulose) (HPC) 100 % of control | dose: 200.0 mg/kg/injection, schedule: Q01DX005 (sc), vehicle: Klucel (hydroxypropylcellulose) (HPC) 115 % of control | [3] 106 % of control | dose: 200.0 mg/kg/injection, schedule: Q01DX009 (oral), vehicle: saline 100 % of control | dose: 250.0 mg/kg/injection, schedule: Q01DX001 (ip), vehicle: steriod suspending solution 91 % of control and 95 % of control | dose: 300.0 mg/kg/injection, schedule: Q01DX001 (sc), vehicle: Klucel (hydroxypropylcellulose) (HPC) 107 % of control | dose: 400.0 mg/kg/injection, schedule: Q01DX001 (oral), vehicle: saline 87 % of control | dose: 400.0 mg/kg/injection, schedule: Q01DX005 (sc), vehicle: Klucel (hydroxypropylcellulose) (HPC) 115 % of control | dose: 400.0 mg/kg/injection, schedule: Q01DX009 (ip), vehicle: saline 106 % of control | dose: 400.0 mg/kg/injection, schedule: Q01DX009 (oral), vehicle: saline 114 % of control | dose: 450.0 mg/kg/injection, schedule: Q01DX001 (sc), vehicle: Klucel (hydroxypropylcellulose) (HPC) 108 % of control | dose: 500.0 mg/kg/injection, schedule: Q01DX001 (ip), vehicle: steriod suspending solution 91 % of control and 94 % of control | dose: 800.0 mg/kg/injection, schedule: Q01DX001 (oral), vehicle: saline 100 % of control | dose: 800.0 mg/kg/injection, schedule: Q01DX005 (ip), vehicle: Klucel (hydroxypropylcellulose) (HPC) 108 % of control | dose: 800.0 mg/kg/injection, schedule: Q01DX005 (sc), vehicle: Klucel (hydroxypropylcellulose) (HPC) 113 % of control | dose: 800.0 mg/kg/injection, schedule: Q01DX009 (oral), vehicle: saline 107 % of control | dose: 1000.0 mg/kg/injection, schedule: Q01DX001 (ip), vehicle: steriod suspending solution 34 % of control | dose: 1600.0 mg/kg/injection, schedule: Q01DX005 (ip), vehicle: Klucel (hydroxypropylcellulose) (HPC) 116 % of control | dose: 1600.0 mg/kg/injection, schedule: Q01DX005 (sc), vehicle: Klucel (hydroxypropylcellulose) (HPC) 100 % of control | dose: 6400.0 mg/kg/injection, schedule: Q01DX005 (sc), vehicle: Klucel (hydroxypropylcellulose) (HPC) 102 % of control

CCN(CC)CCC(=O)c1cccc2ccccc12
inactive: dose: 25.0 mg/kg/injection, schedule: Q01DX005 (ip), vehicle: saline with Tween-80 100 % of control | dose: 50.0 mg/kg/injection, schedule: Q01DX005 (ip), vehicle: saline with Tween-80 106 % of control | dose: 100.0 mg/kg/injection, schedule: Q01DX005 (ip), vehicle: saline with Tween-80 102 % of control

N#Cc1nccnc1C#N
inactive: dose: 12.5 mg/kg/injection, schedule: Q01DX009 (ip), vehicle: saline with Tween-80 86 % of control | [4] 105 % of control | [5] 102 % of control | [6] 101 % of control

CC(C)(C)c1ccc(S(=O)(=O)O)cc1
inactive: [1] 103 % of control | [2] 100 % of control | [3] 86 % of control

CC(=O)N1CN(C)N(C)C1
inactive: dose: 60.0 mg/kg/injection, schedule: Q01DX005 (ip), vehicle: Klucel (hydroxypropylcellulose) (HPC) 98 % of control | dose: 120.0 mg/kg/injection, schedule: Q01DX005 (ip), vehicle: Klucel (hydroxypropylcellulose) (HPC) 91 % of control | dose: 240.0 mg/kg/injection, schedule: Q01DX005 (ip), vehicle: Klucel (hydroxypropylcellulose) (HPC) 100 % of control

O=C(O)c1ccc(Cl)c(Cl)c1
inactive: dose: 12.5 mg/kg/injection, schedule: Q01DX009 (ip), vehicle: Klucel (hydroxypropylcellulose) (HPC) 101 % of control | dose: 25.0 mg/kg/injection, schedule: Q01DX009 (ip), vehicle: Klucel (hydroxypropylcellulose) (HPC) 110 % of control | [5] 99 % of control | dose: 100.0 mg/kg/injection, schedule: Q01DX009 (ip), vehicle: Klucel (hydroxypropylcellulose) (HPC) 108 % of control

CCOC(=O)CS(=O)(=O)CCS(=O)(=O)CC(=O)OCC
inactive: [1] 95 % of control | [2] 97 % of control | [3] 102 % of control

CC(=O)OCC1OC(n2nnc(CCl)c2CCl)C(OC(C)=O)C(OC(C)=O)C1OC(C)=O (stereo unspecified)
inactive: [6] 110 % of control | [7] 98 % of control | [8] 117 % of control

Cc1nc2sccc2c(=O)n1C
inactive: [9] 97 % of control | [10] 98 % of control | [11] 103 % of control

ON(C=Nc1ccccc1)c1ccccc1
inactive: [1] 101 % of control | [2] 101 % of control | [3] 97 % of control

CCOC(=O)COc1cc2c(cc1C(C)c1ccc(OCC)cc1)OCO2 (stereo unspecified)
inactive: [9] 93 % of control | [10] 93 % of control | [11] 88 % of control

Nc1ncnc2c1c(-c1ccccc1)cn2-c1ccc(Cl)cc1
inactive: dose: 60.0 mg/kg/injection, schedule: Q01DX005 (ip), vehicle: saline with Tween-80 104 % of control | dose: 120.0 mg/kg/injection, schedule: Q01DX005 (ip), vehicle: saline with Tween-80 99 % of control | dose: 240.0 mg/kg/injection, schedule: Q01DX005 (ip), vehicle: saline with Tween-80 88 % of control

O=C1CSC(c2ccccc2O)N1c1nc(-c2ccc(Cl)cc2)cs1 (stereo unspecified)
inactive: dose: 100.0 mg/kg/injection, schedule: Q01DX001 (ip), vehicle: saline with Tween-80 100 % of control | dose: 200.0 mg/kg/injection, schedule: Q01DX001 (ip), vehicle: saline with Tween-80 98 % of control | dose: 400.0 mg/kg/injection, schedule: Q01DX001 (ip), vehicle: saline with Tween-80 87 % of control

CC1(C)C=Cc2cc(O)ccc2O1
inactive: [4] 99 % of control | [6] 90 % of control | [7] 88 % of control | [8] 86 % of control

CC(C)C(=O)CCCN1C(=O)c2ccccc2C1=O
inactive: dose: 12.5 mg/kg/injection, schedule: Q01DX009 (ip), vehicle: distilled water + Tween-80 94 % of control | dose: 25.0 mg/kg/injection, schedule: Q01DX009 (ip), vehicle: distilled water + Tween-80 86 % of control | dose: 50.0 mg/kg/injection, schedule: Q01DX009 (ip), vehicle: distilled water + Tween-80 86 % of control | dose: 100.0 mg/kg/injection, schedule: Q01DX009 (ip), vehicle: distilled water + Tween-80 100 % of control

O=Cc1c(Cl)n(C(=O)c2ccc(F)cc2)c2ccccc12
inactive: dose: 100.0 mg/kg/injection, schedule: Q01DX001 (ip), vehicle: Klucel (hydroxypropylcellulose) (HPC) 97 % of control | dose: 200.0 mg/kg/injection, schedule: Q01DX001 (ip), vehicle: Klucel (hydroxypropylcellulose) (HPC) 113 % of control | dose: 400.0 mg/kg/injection, schedule: Q01DX001 (ip), vehicle: Klucel (hydroxypropylcellulose) (HPC) 96 % of control
